ChEMBL document CHEMBL2385055, “Optimization of a 1,5-dihydrobenzo[b][1,4]diazepine-2,4-dione series of HIV capsid assembly inhibitors 2: structure-activity relationships (SAR) of the C3-phenyl moiety” (Bioorg Med Chem Lett, 2013)

How the values were obtained:
[1] = Induction of HIV1 NL4-3 nucleocapsid protein disassembly expressed in expressed in Escherichia coli BL21 (DE3) using 5'-end fluorescein labeled (TG)25 oligonucleotide after 2 hrs by fluorescence assay; design: species or system Human immunodeficiency virus 1
[2] = Inhibition of HIV1 NL4-3 nucleocapsid protein assembly expressed in expressed in Escherichia coli BL21 (DE3) using 5'-end fluorescein labeled (TG)25 oligonucleotide after 2 hrs by fluorescence assay; design: species or system Human immunodeficiency virus 1
[3] = Cytotoxicity against human C8166 cells; type: cell-based
[4] = test system: Human immunodeficiency virus 1; assay: Antiviral activity against HIV1 infected in human C8166 cells assessed as inhibition of viral replication after 2 days by luciferase assay; type: functional, organism-based; settings: Human immunodeficiency virus 1, C8166, 48 h
Cytochrome P450 3A4 = Cytochrome P450 3A4 (Homo sapiens, UniProt P08684); assay: Inhibition of CYP3A4 (unknown origin); type: ADME
Chain of Cytochrome P450 3A4 (P08684 whole entry): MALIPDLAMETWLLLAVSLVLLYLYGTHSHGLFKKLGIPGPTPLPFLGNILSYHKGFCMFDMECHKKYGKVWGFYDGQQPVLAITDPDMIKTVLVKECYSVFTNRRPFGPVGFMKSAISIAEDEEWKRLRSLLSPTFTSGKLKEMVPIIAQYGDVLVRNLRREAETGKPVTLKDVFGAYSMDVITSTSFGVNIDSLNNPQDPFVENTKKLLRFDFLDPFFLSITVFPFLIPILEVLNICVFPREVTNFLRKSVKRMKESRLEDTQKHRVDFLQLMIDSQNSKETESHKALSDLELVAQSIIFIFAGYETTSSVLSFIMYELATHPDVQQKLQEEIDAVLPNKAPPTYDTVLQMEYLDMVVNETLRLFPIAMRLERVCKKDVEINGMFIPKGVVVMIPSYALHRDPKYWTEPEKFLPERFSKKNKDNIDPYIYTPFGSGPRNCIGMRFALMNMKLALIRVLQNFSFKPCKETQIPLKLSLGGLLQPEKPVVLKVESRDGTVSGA

[5] = Half life in human liver microsomes; type: ADME, Microsome
[6] = Permeability across human Caco2 cells; type: ADME, cell-based; settings: Caco-2, read-out: permeability
Cytochrome P450 2D6 = Cytochrome P450 2D6 (Homo sapiens, UniProt P10635); assay: Inhibition of CYP2D6 (unknown origin); type: ADME
Chain of Cytochrome P450 2D6 (P10635 whole entry): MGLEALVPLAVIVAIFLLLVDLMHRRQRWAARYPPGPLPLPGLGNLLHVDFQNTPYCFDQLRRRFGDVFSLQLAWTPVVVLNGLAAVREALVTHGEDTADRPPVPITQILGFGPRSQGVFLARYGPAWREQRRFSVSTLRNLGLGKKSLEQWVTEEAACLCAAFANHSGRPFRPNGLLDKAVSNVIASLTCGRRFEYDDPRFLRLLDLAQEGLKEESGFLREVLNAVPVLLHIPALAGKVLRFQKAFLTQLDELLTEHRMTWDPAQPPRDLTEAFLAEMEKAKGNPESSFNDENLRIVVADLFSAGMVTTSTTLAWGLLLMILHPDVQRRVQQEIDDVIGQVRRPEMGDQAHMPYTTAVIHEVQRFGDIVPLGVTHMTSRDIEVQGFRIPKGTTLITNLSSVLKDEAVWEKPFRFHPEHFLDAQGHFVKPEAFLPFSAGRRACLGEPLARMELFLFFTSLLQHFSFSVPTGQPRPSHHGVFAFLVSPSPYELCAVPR

[7] = Half life in rat liver microsomes; type: ADME, Microsome
Rattus norvegicus = assay: Total clearance in iv dosed rat relative to liver blood perfusion rate; type: ADME, organism-based; settings: in vivo
[8] = Volume of distribution at steady state in iv dosed rat; type: ADME, organism-based; settings: in vivo, read-out: Vdss
[9] = Half life in iv dosed rat; type: ADME, organism-based; settings: in vivo

SMILES: CN1C(=O)C(c2ccccc2)C(=O)N(c2ccccc2)c2cc(C(F)(F)F)ccc21 (stereo not given)
- IC50 [1]: 0.68 µM

SMILES: CCN1C(=O)C(c2ccc(-c3cnco3)cc2)C(=O)N(c2ccccc2)c2cc(C(F)(F)F)ccc21 (stereo not given)
- IC50 [1]: 0.47 µM
- IC50 [2]: 0.76 µM
- CC50 [3]: > 7 µM
- EC50 [4]: 1.1 µM

SMILES: CCN1C(=O)C(c2ccccc2)C(=O)N(c2ccccc2)c2cc(C(F)(F)F)ccc21 (stereo not given)
- IC50 [1]: 0.48 µM
- IC50 [2]: 0.73 µM

SMILES: COc1ccccc1C1C(=O)N(C)c2ccc(C(F)(F)F)cc2N(c2ccccc2)C1=O (stereo not given)
- IC50 [2]: 0.71 µM
- EC50 [4]: 2.7 µM

SMILES: COc1cccc(C2C(=O)N(C)c3ccc(C(F)(F)F)cc3N(c3ccccc3)C2=O)c1 (stereo not given)
- IC50 [2]: 0.55 µM
- EC50 [4]: 1.2 µM

SMILES: COc1ccc(C2C(=O)N(C)c3ccc(C(F)(F)F)cc3N(c3ccccc3)C2=O)cc1 (stereo not given)
- IC50 [2]: 1.1 µM
- EC50 [4]: 3.2 µM

SMILES: CCN1C(=O)C(c2ccc(O)cc2)C(=O)N(c2ccccc2)c2cc(C(F)(F)F)ccc21 (stereo not given)
- IC50 [1]: 0.18 µM
- IC50 [2]: 0.4 µM
- EC50 [4]: 1 µM

SMILES: CCN1C(=O)C(c2ccc(O)c(OC)c2)C(=O)N(c2ccccc2)c2cc(C(F)(F)F)ccc21 (stereo not given)
- IC50 [1]: 0.11 µM
- IC50 [2]: 0.59 µM
- CC50 [3]: 42 µM
- EC50 [4]: 0.53 µM

SMILES: CCN1C(=O)C(c2ccccc2-c2ccncc2)C(=O)N(c2ccccc2)c2cc(C(F)(F)F)ccc21 (stereo not given)
- IC50 [2]: > 7.2 µM

SMILES: CCN1C(=O)C(c2cccc(-c3ccncc3)c2)C(=O)N(c2ccccc2)c2cc(C(F)(F)F)ccc21 (stereo not given)
- IC50 [1]: 0.19 µM
- IC50 [2]: 0.53 µM
- CC50 [3]: 17 µM
- EC50 [4]: 0.79 µM

SMILES: CCN1C(=O)C(c2ccc(-c3ccncc3)cc2)C(=O)N(c2ccccc2)c2cc(C(F)(F)F)ccc21 (stereo not given)
- IC50 [1]: 0.21 µM
- IC50 [2]: 0.39 µM
- CC50 [3]: 15 µM
- EC50 [4]: 0.57 µM

SMILES: CCN1C(=O)C(c2cccc(-c3cccnc3)c2)C(=O)N(c2ccccc2)c2cc(C(F)(F)F)ccc21 (stereo not given)
- IC50 [2]: 0.48 µM
- CC50 [3]: 20 µM
- EC50 [4]: 1 µM

SMILES: CCN1C(=O)C(c2cccc(-c3cnn(C)c3)c2)C(=O)N(c2ccccc2)c2cc(C(F)(F)F)ccc21 (stereo not given)
- IC50 [1]: 0.13 µM
- IC50 [2]: 0.63 µM
- CC50 [3]: 20 µM
- EC50 [4]: 0.71 µM

SMILES: CCN1C(=O)C(c2cccc(-c3ccnn3C)c2)C(=O)N(c2ccccc2)c2cc(C(F)(F)F)ccc21 (stereo not given)
- IC50 [1]: 0.3 µM
- IC50 [2]: 0.67 µM
- CC50 [3]: 30 µM
- EC50 [4]: 0.99 µM

SMILES: CCN1C(=O)C(c2ccc(-c3cccnc3)cc2)C(=O)N(c2ccccc2)c2cc(C(F)(F)F)ccc21 (stereo not given)
- IC50 [1]: 0.32 µM
- IC50 [2]: 0.4 µM
- CC50 [3]: 7 µM
- EC50 [4]: 0.4 µM

SMILES: CCN1C(=O)C(c2ccc(-c3cnc(OC)nc3)cc2)C(=O)N(c2ccccc2)c2cc(C(F)(F)F)ccc21 (stereo not given)
- IC50 [1]: 0.27 µM
- IC50 [2]: 0.45 µM
- CC50 [3]: > 20 µM
- EC50 [4]: 0.62 µM

SMILES: CCN1C(=O)C(c2cc(-c3cnn(C)c3)ccc2O)C(=O)N(c2ccccc2)c2cc(C(F)(F)F)ccc21 (stereo not given)
- IC50 [1]: 0.17 µM
- INH (Cytochrome P450 3A4): 1.7 µM
- half-life [5]: 2.5 h
- Papp [6]: 4.3 ×10⁻⁶ cm/s
- EC50 [4]: 0.18 µM
- INH (Cytochrome P450 2D6): > 30 µM

SMILES: CCN1C(=O)C(c2ccc(O)c(-c3cnn(C)c3)c2)C(=O)N(c2ccccc2)c2cc(C(F)(F)F)ccc21 (stereo not given)
- IC50 [1]: 0.12 µM
- INH (Cytochrome P450 3A4): 5.7 µM
- half-life [5]: 2 h
- Papp [6]: < 0.1 ×10⁻⁶ cm/s
- EC50 [4]: 0.19 µM
- INH (Cytochrome P450 2D6): > 30 µM

SMILES: CCN1C(=O)C(c2cc(-c3cnn(C)c3)c(O)cc2O)C(=O)N(c2ccccc2)c2cc(C(F)(F)F)ccc21 (stereo not given)
- IC50 [1]: 0.1 µM
- half-life [7]: 0.183 h
- INH (Cytochrome P450 3A4): 4.5 µM
- half-life [5]: 1.85 h
- Papp [6]: 7.7 ×10⁻⁶ cm/s
- EC50 [4]: 0.14 µM
- INH (Cytochrome P450 2D6): 13 µM

SMILES: CCN1C(=O)C(c2cc(-c3cn[nH]c3)c(O)cc2O)C(=O)N(c2ccccc2)c2cc(C(F)(F)F)ccc21 (stereo not given)
- IC50 [1]: 0.05 µM
- half-life [7]: 0.25 h
- INH (Cytochrome P450 3A4): 4.8 µM
- half-life [5]: > 5 h
- Papp [6]: < 0.1 ×10⁻⁶ cm/s
- EC50 [4]: 0.13 µM
- INH (Cytochrome P450 2D6): 8.9 µM

SMILES: CCCn1cc(-c2cc(C3C(=O)N(CC)c4ccc(C(F)(F)F)cc4N(c4ccccc4)C3=O)cc(OC)c2O)cn1 (stereo not given)
- IC50 [1]: 0.16 µM
- half-life [7]: 1.12 h
- CL (Rattus norvegicus): 50%
- Vd [8]: 15 L/kg
- INH (Cytochrome P450 3A4): 3.6 µM
- half-life [5]: 1.43 h
- Papp [6]: 9.9 ×10⁻⁶ cm/s
- EC50 [4]: 0.07 µM
- INH (Cytochrome P450 2D6): > 30 µM
- half-life [9]: 4.8 h

SMILES: CCN1C(=O)N(c2ccc(O)c(-c3cnn(C)c3)c2)C(=O)N(c2ccccc2)c2cc(C(F)(F)F)ccc21
- IC50 [1]: 0.12 µM
- EC50 [4]: 0.24 µM

SMILES: CCN1C(=O)C2(CCc3cc(O)c(-c4cnn(C)c4)cc32)C(=O)N(c2ccccc2)c2cc(C(F)(F)F)ccc21 (stereo not given)
- IC50 [1]: 0.13 µM
- EC50 [4]: 0.3 µM

SMILES: CCN1C(=O)C2(CCc3c2ccc(O)c3-c2cnn(C)c2)C(=O)N(c2ccccc2)c2cc(C(F)(F)F)ccc21 (stereo not given)
- IC50 [1]: 0.2 µM
- EC50 [4]: 0.78 µM
